Where two headings read alike, the source gives them in different places.
Legend:
[1] = tested on: SIM-A9 cells; assay: Anti-inflammation assay: TNF-α production from LPS stimulated SIM-A9 cells (ELISA); type: cell-based; conditions: compound 2.7 μM; LPS stimulated SIM-A9 cells; read-out: TNF-α Inhibition
[2] = target: biotinylated amyloid-beta(1-42) (bioAbeta42) (Homo sapiens, UniProt P05067); type: biochemical
[3] = Example 5, ND = inhibition activity not detected over 200 μM, read-out: Inhibition of Aβ oligomerization, μM IC50
[4] = Example 2, read-out: Anti-Aβ oligomerization IC50

Sequence of biotinylated amyloid-beta(1-42) (bioAbeta42) (P05067 672-713): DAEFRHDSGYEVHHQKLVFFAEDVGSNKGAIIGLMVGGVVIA

Row | SMILES | inhibition at 2.7 µM [1] | IC50 [2, 3] | IC50 [2, 4]
1 | O=C(O)c1ccc(Cl)cc1NCc1cccs1 [LD3-309, 4-Chloro-2-((thiophen-2-ylmethyl)amino)benzoic Acid] | 18% |  | 
2 | O=C(Nc1ccccc1)c1cc(C(=O)O)c(NCc2ccco2)cc1Cl [SIV-W179, 4-Chloro-2((furan-2-ylmethyl)amino)-5-(phenylcarbamoyl)benzoic Acid] | 22% | > 200 µM | 
3 | O=C(O)c1ccc(F)cc1NCc1ccco1 [WW071, 4-Fluoro-2-((furan-2-ylmethyl)amino)benzoic Acid] |  | 130 ± 25.8 µM | 
4 | O=C(O)c1ccc(Cl)cc1NCCc1ccccc1 [LD3-306, 4-Chloro-2-(phenethylamino)benzoic Acid] | 21% |  | 
5 | O=C(O)c1cc(S(=O)(=O)NCCc2ccccc2)c(Cl)cc1NCc1ccco1 [WW056, 4-Chloro-2-((furan-2-ylmethyl)amino)-5-(N-phenethylsulfamoyl) Benzoic Acid] | 13% | > 200 µM | 
6 | O=C(O)c1cc(S(=O)(=O)NC2CCCCC2)c(Cl)cc1NCc1ccco1 [WW082, 4-Chloro-5-(N-cyclohexylsulfamoyl)-2-((furan-2-ylmethyl)amino) Benzoic Acid] | 11% | 116 ± 13.8 µM | 
7 | CN(C)C(=O)c1cc(C(=O)O)c(NCc2ccco2)cc1Cl [SIV-W173, 4-Chloro-5-(dimethylcarbamoyl)-2((furan-2-ylmethyl)amino)benzoic Acid] | 25% | > 200 µM | 
8 | CCNS(=O)(=O)c1cc(C(=O)O)c(NCc2ccco2)cc1Cl [WW057, 4-Chloro-5-(N-ethylsulfamoyl)-2-((furan-2-ylmethyl)amino) Benzoic Acid] |  | 137 ± 11.9 µM | 
9 | COc1ccc(C(=O)O)c(NCc2ccco2)c1 [Compound 5-LV-54A] | 16% |  | 
10 | CCNC(=O)c1cc(C(=O)OC)c(NCc2ccco2)cc1Cl [SIV-W172, Methyl 4-chloro-5-(ethylcarbamoyl)-2-((furan-2-ylmethyl)amino)benzoate] | 18% |  | 
11 | CN(Cc1ccccc1)S(=O)(=O)c1cc(C(=O)O)c(NCc2ccco2)cc1Cl [WW052, 5-(N-Benzyl-N-methylsulfamoyl)-4-chloro-2-((furan-2-ylmethyl)amino) benzoic Acid] | 24.1% | 21.9 ± 7.36 µM | 21.7 µM
12 | COc1ccc(CNS(=O)(=O)c2cc(C(=O)O)c(NCc3ccco3)cc2Cl)cc1 [WW063, 4-Chloro-2-((furan-2-ylmethyl)amino)-5-(N-(4-methoxybenzyl)sulfamoyl) Benzoic Acid] |  | > 200 µM | 
13 | COc1ccc(C(=O)O)c(NCc2ccoc2)c1 [Compound 5-LV-56A] | 32% |  | 
14 | NC(=O)c1cc(C(=O)O)c(NCc2ccco2)cc1Cl [SIV-W164, 5-Carbamoyl-4-chloro-2((furan-2-ylmethyl)amino) Benzoic Acid] |  | > 200 µM | 
15 | CNS(=O)(=O)c1cc(CO)c(NCc2ccco2)cc1Cl [WW109, 2-Chloro-4-((furan-2-ylmethyl)amino)-5-(hydroxymethyl)-N-methylbenzenesulfonamide] | 21% | 117 ± 3.95 µM | 
16 | COC(=O)c1cc(C(=O)N2CCCCC2)c(Cl)cc1NCc1ccco1 [SIV-W160, Methyl 4-chloro-2-((furan-2-ylmethyl)amino)-5-(piperidine-1-carbonyl)benzoate] | 25% |  | 
17 | COc1c(C)ccc(CNc2cc(F)ccc2C(O)C(F)(F)F)c1OC (centres unmarked) [WW-028] | 19.9% |  | 
18 | COC(=O)c1cc(S(N)(=O)=O)c(Cl)cc1NCc1ccco1 [WW-161] | 24% |  | 

Row | SMILES | inhibition at 2.7 µM [1] | IC50 [2, 3] | IC50 [2, 4]
19 | CNC(=O)c1cc(C(=O)O)c(NCc2ccco2)cc1Cl [SIV-W168, 4-Chloro-2-((furan-2-ylmethyl)amino)-5-(methylcarbamoyl)benzoic Acid] | 27% | > 200 µM | 
20 | O=C(O)c1cc(S(=O)(=O)NCc2ccccc2)c(Cl)cc1NCc1ccco1 [WW035, 5-(N-benzylsulfamoyl)-4-chloro-2-((furan-2-ylmethyl)amino)benzoic Acid] |  | > 200 µM | 
21 | Cc1ccc(CNc2cc(F)ccc2C(O)C(F)(F)F)c(C)c1 (centres unmarked) [WW-024] | 11.2% |  | 
22 | CNS(=O)(=O)c1cc(-c2noc(=O)[nH]2)c(NCc2ccco2)cc1Cl [WW187, 2-Chloro-4-((furan-2-ylmethyl)amino)-N-methyl-5-(5-oxo-2,5-dihydro-1,2,4-oxadiazol-3-yl)benzenesulfonamide] | 20% | > 200 µM | 
23 | O=C(O)c1ccc(Br)cc1NCc1ccco1 [WW073, 4-Bromo-2-((furan-2-ylmethyl)amino) Benzoic Acid] | 27% | 154 ± 33.8 µM | 
24 | O=C(O)c1cc(C(=O)N2CCOCC2)c(Cl)cc1NCc1ccco1 [SIV-W166, 4-Chloro-2-((furan-2-ylmethyl)amino)-5-(morpholine-4-carbonyl)benzoic acid] | 25% | > 200 µM | 
25 | Cc1ccc(CNS(=O)(=O)c2cc(C(=O)O)c(NCc3ccco3)cc2Cl)cc1 [WW065, 4-Chloro-2-((furan-2-ylmethyl)amino)-5-(N-(4-methylbenzyl)sulfamoyl) Benzoic Acid] | 20% | > 200 µM | 
26 | O=C(O)c1ccc(Cl)cc1NCc1ccccc1 [LD3-305, 2-(Benzylamino)-4-chlorobenzoic Acid] | 30% |  | 
27 | O=C(O)c1cc(C(=O)N2CCCCC2)c(Cl)cc1NCc1ccco1 [SIV-W167, 4-Chloro-2-((furan-2-ylmethyl)amino)-5-(piperidine-1-carbonyl)benzoic Acid] |  | > 200 µM | 
28 | O=C(O)c1cc(S(=O)(=O)NC2CC2)c(Cl)cc1NCc1ccco1 [WW030, 4-Chloro-5-(N-cyclopropylsulfamoyl)-2-((furan-2-ylmethyl)amino)benzoic Acid] |  | > 200 µM | 
29 | CC(NS(=O)(=O)c1cc(C(=O)O)c(NCc2ccco2)cc1Cl)c1ccccc1 (centres unmarked) [WW053, 4-Chloro-2-((furan-2-ylmethyl)amino)-5-(N-(1-phenylethyl)sulfamoyl) benzoic Acid] |  | 41.1 ± 20.4 µM | 38.5 µM
30 | COc1ccc(C(=O)O)c(NCc2ccccc2)c1 [Compound 5-LV-54B, 2-(Benzylamino)-4-methoxybenzoic Acid] | 30% |  | 
31 | O=C(O)c1ccc(Cl)cc1NCc1ccoc1 [LD3-310, 4-Chloro-2-((furan-3-ylmethyl)amino)benzoic Acid] | 24% |  | 
32 | CNS(=O)(=O)c1cc(-c2nnn[nH]2)c(NCc2ccco2)cc1Cl [WW121] | 2% | 70.5 ± 15.7 µM | 
33 | COC(=O)c1cc(C(=O)Nc2ccccc2)c(Cl)cc1NCc1ccco1 [SIV-W178, Methyl 4-chloro-2-((furan-2-ylmethyl)amino)-5-(phenylcarbamoyl)benzoate] | 12% |  | 
34 | CNC(=O)c1cc(C(=O)OC)c(NCc2ccco2)cc1Cl [SIV-W155, Methyl 4-chloro-2-((furan-2-ylmethyl)amino)-5-(methylcarbamoyl)benzoate] | 20% |  | 
35 | CCNC(=O)c1cc(C(=O)O)c(NCc2ccco2)cc1Cl [SIV-W174, 4-Chloro-5-(ethylcarbamoyl)-2((furan-2-ylmethyl)amino)benzoic Acid] | 21% | > 200 µM | 

Source: patent US20220259167A1 (UNIVERSITY HEALTH NETWORK, priority 2019, published 2022)
